Some test systems named below: ACHN renal; EKVX NSCLC; IGROV1 ovarian; K-562 leukemia; M14 melanoma; NCI-H226 lung; RPMI-8226 leukemia; SF-539 CNS; SK-MEL-2 melanoma; UO-31 renal.
Assay in all cases: NCI-60 cell line screen, 48 h

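In this assay, cells in 96-well plates receive the compound at five concentrations for 48 hours. Endpoints are linearly interpolated between the surrounding concentrations. GI50 = concentration required for 50% inhibition of growth. TGI: total growth inhibition.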

We go through ten compounds from PubChem BioAssay (NCI).

For the compound `O=C1CCN2CCC(=O)c3c2c(cc2ccccc32)N1`, the TGI with ACHN renal, in the assay with EKVX NSCLC, in the assay on IGROV1 ovarian, with K-562 leukemia, in the assay with M14 melanoma and with NCI-H226 lung was more than 100 µM in each case. Further, the TGI in the assay on RPMI-8226 leukemia, in the assay with SF-539 CNS, with SK-MEL-2 melanoma and in the assay with UO-31 renal was more than 100 µM in each case.
Regarding `COc1cc(/C=C/c2ccc(OC)c(OC)c2OC)cc(OC)c1OC`, the TGI in the assay on ACHN renal was more than 92.2 µM; with EKVX NSCLC it was more than 70.8 µM; in the assay on IGROV1 ovarian, 83.3 µM; in the assay on K-562 leukemia, more than 69.3 µM; with M14 melanoma, 77 µM; in the assay with NCI-H226 lung it was 39.7 µM. The TGI in the assay with RPMI-8226 leukemia was 37.1 µM; with SF-539 CNS, 37 µM; in the assay on SK-MEL-2 melanoma it was 36.1 µM; in the assay on UO-31 renal, 46.3 µM.
As for `Cc1nn(CNc2ccccc2C(F)(F)F)c(=S)n1/N=C/c1ccc(F)cc1`, the GI50 in the assay with ACHN renal was more than 100 µM; in the assay with EKVX NSCLC it was 42 µM; with IGROV1 ovarian, more than 100 µM; in the assay with K-562 leukemia it was 89.4 µM; in the assay on M14 melanoma it was 87.9 µM; in the assay on NCI-H226 lung, 43.7 µM. The GI50 in the assay on RPMI-8226 leukemia was 48.5 µM; with SF-539 CNS it was more than 100 µM; in the assay with SK-MEL-2 melanoma, more than 100 µM; in the assay on UO-31 renal it was more than 100 µM. Further, the TGI with ACHN renal, in the assay on EKVX NSCLC, with IGROV1 ovarian, in the assay on K-562 leukemia, in the assay on M14 melanoma and in the assay on NCI-H226 lung was more than 100 µM throughout. In addition, the TGI in the assay with RPMI-8226 leukemia, in the assay on SF-539 CNS, in the assay on SK-MEL-2 melanoma and in the assay on UO-31 renal was more than 100 µM throughout.
Consider `Clc1ccc2ns[s+]c2c1`, for which the TGI in the assay on ACHN renal was more than 94.3 µM; in the assay on EKVX NSCLC it was more than 100 µM; in the assay with IGROV1 ovarian it was more than 100 µM; with K-562 leukemia it was more than 100 µM; in the assay on M14 melanoma it was more than 100 µM; in the assay on NCI-H226 lung, more than 100 µM. The TGI was more than 100 µM in the assay with RPMI-8226 leukemia, 37.8 µM in the assay on SF-539 CNS, more than 82.5 µM with SK-MEL-2 melanoma and more than 66.8 µM with UO-31 renal.
With `N=c1ccc2nc3c(cc(N)c4ccccc43)oc-2c1`, the GI50 with ACHN renal is 0.325 µM; in the assay with EKVX NSCLC, 0.174 µM; with IGROV1 ovarian it was 0.18 µM; in the assay on K-562 leukemia, 0.298 µM; with M14 melanoma, 0.164 µM; in the assay with NCI-H226 lung, 0.386 µM. In addition, the GI50 is 0.427 µM in the assay with RPMI-8226 leukemia, 0.293 µM in the assay on SF-539 CNS, 0.407 µM with SK-MEL-2 melanoma and 0.333 µM in the assay on UO-31 renal. Besides, the TGI with ACHN renal came to 1.44 µM; in the assay with EKVX NSCLC it was 1.09 µM; in the assay with IGROV1 ovarian, 0.643 µM; with K-562 leukemia, 1.18 µM; in the assay with M14 melanoma, 0.338 µM; in the assay on NCI-H226 lung, 1.63 µM. The TGI worked out at 2.94 µM in the assay on RPMI-8226 leukemia, 1.05 µM in the assay on SF-539 CNS, 1.61 µM in the assay on SK-MEL-2 melanoma and 0.958 µM in the assay with UO-31 renal.
In the case of `COC(=O)C(CC(=O)c1c[nH]c2ccccc12)c1c[nH]c2ccccc12` (stereo not given), the TGI in the assay on ACHN renal is 37.7 µM; in the assay on EKVX NSCLC it was 74.1 µM; in the assay on IGROV1 ovarian it was more than 10 µM; with K-562 leukemia, 66.7 µM; with M14 melanoma, 41.9 µM; in the assay with NCI-H226 lung it was 54.3 µM. The TGI was 44.8 µM in the assay with RPMI-8226 leukemia, 39.5 µM in the assay with SF-539 CNS, 44.2 µM in the assay on SK-MEL-2 melanoma and 39.3 µM in the assay with UO-31 renal.
As for `COC(=O)[C@]1(C)C(OC)=CC(=O)C2C1[C@H]1CCC[C@@H]21` (stereo not given in full), the TGI in the assay on ACHN renal, in the assay with EKVX NSCLC, with IGROV1 ovarian, with K-562 leukemia, in the assay on M14 melanoma and in the assay on NCI-H226 lung was more than 100 µM in each case. For the same compound, the TGI with RPMI-8226 leukemia, in the assay with SF-539 CNS, in the assay on SK-MEL-2 melanoma and in the assay with UO-31 renal was more than 100 µM in each case.
For `COc1ccc([C@@H](O)c2cc(-c3ncnc4cc(N5CCOCC5)ccc34)c(F)cc2Cl)nn1`, the GI50 in the assay on ACHN renal was 2.53 µM; in the assay on EKVX NSCLC it was 5.35 µM; in the assay with IGROV1 ovarian, 0.469 µM; in the assay with K-562 leukemia it was 3.78 µM; with M14 melanoma it was 4.91 µM; in the assay with NCI-H226 lung, 3.82 µM. The GI50 with RPMI-8226 leukemia was 3.58 µM; in the assay with SF-539 CNS, 2.13 µM; with SK-MEL-2 melanoma, 7.37 µM; in the assay on UO-31 renal, 0.646 µM. The TGI with ACHN renal is 91 µM; in the assay with EKVX NSCLC it was 42.9 µM; in the assay with IGROV1 ovarian, 4.99 µM; with K-562 leukemia, more than 100 µM; with M14 melanoma, 28.5 µM; with NCI-H226 lung, 60.4 µM. Besides, the TGI is 22.4 µM in the assay with RPMI-8226 leukemia, 12.7 µM in the assay with SF-539 CNS, 25.3 µM in the assay with SK-MEL-2 melanoma and 23 µM in the assay on UO-31 renal.
Turning to `Nc1cc2[nH]cnc2c(=O)[nH]1`, the TGI in the assay with ACHN renal was more than 300 µM; in the assay on EKVX NSCLC it was more than 300 µM; with IGROV1 ovarian, more than 300 µM; in the assay on K-562 leukemia, more than 300 µM; in the assay on M14 melanoma, more than 300 µM; in the assay with NCI-H226 lung it was more than 212 µM. Besides, the TGI with RPMI-8226 leukemia is more than 300 µM; with SF-539 CNS it was more than 234 µM; in the assay on SK-MEL-2 melanoma, 125 µM; in the assay with UO-31 renal it was more than 300 µM.
Consider `Cc1cccc(N=C2NC(=O)C(CC(=O)Nc3ccc(C)cc3C)S2)c1` (stereo not given), for which the TGI in the assay on ACHN renal, in the assay with EKVX NSCLC, in the assay on IGROV1 ovarian, in the assay with K-562 leukemia, in the assay on M14 melanoma and in the assay on NCI-H226 lung was more than 100 µM in each case. The TGI with RPMI-8226 leukemia, with SF-539 CNS, in the assay on SK-MEL-2 melanoma and with UO-31 renal was more than 100 µM each time.
